According to PMC9596375 (2022):

What was measured:
[1] = tested on: X2B2 (RNA, aptamer) GGAUACACAAGAGCGAUUGAAACUAAGUCUGUGUAUCC; experiment: ITC; details: 20 mM MgCl2; 10 mM Tris-HCl pH 7.5, 30 °C
[2] = tested on: X2B2-C14U (RNA, aptamer) GGAUACACAAGAGUGAUUGAAACUAAGUCUGUGUAUCC; experiment: ITC; details: 20 mM MgCl2; 10 mM Tris-HCl pH 7.5, 30 °C
[3] = tested on: X2B2-C14U-dG13-dU18 (RNA, aptamer, 2'-deoxy at G13 and U18) GGAUACACAAGAGUGAUUGAAACUAAGUCUGUGUAUCC; experiment: UV-Vis absorbance shift; details: 30 mM MgCl2, 140 mM KCl, 10 mM NaCl; 50 mM Tris pH 7.0; ∆λmax 7
[4] = tested on: X2B2-C14U-dG13 (RNA, aptamer, 2'-deoxy at G13) GGAUACACAAGAGUGAUUGAAACUAAGUCUGUGUAUCC; experiment: UV-Vis absorbance shift; details: 30 mM MgCl2, 140 mM KCl, 10 mM NaCl; 50 mM Tris pH 7.0; ∆λmax 10
[5] = tested on: X2B2-C14U-dU18 (RNA, aptamer, 2'-deoxy at U18) GGAUACACAAGAGUGAUUGAAACUAAGUCUGUGUAUCC; experiment: UV-Vis absorbance shift; details: 30 mM MgCl2, 140 mM KCl, 10 mM NaCl; 50 mM Tris pH 7.0; ∆λmax 7
[6] = tested on: X2B2-C14A (RNA, aptamer) GGAUACACAAGAGAGAUUGAAACUAAGUCUGUGUAUCC; experiment: UV-Vis absorbance shift; details: 30 mM MgCl2, 140 mM KCl, 10 mM NaCl; 50 mM Tris pH 7.0; 40 µM RNA, 40 µM FAD; ∆λmax 5
[7] = tested on: X2B2-A21U (RNA, aptamer) GGAUACACAAGAGCGAUUGAUACUAAGUCUGUGUAUCC; experiment: UV-Vis absorbance shift; details: 30 mM MgCl2, 140 mM KCl, 10 mM NaCl; 50 mM Tris pH 7.0; 40 µM RNA, 40 µM FAD; ∆λmax 1
[8] = tested on: X2B2-D4 (RNA, aptamer) GGAUAGCCAAGAGCGAUUGAAACUAAGUCUGUGUAUCC; experiment: UV-Vis absorbance shift; details: 30 mM MgCl2, 140 mM KCl, 10 mM NaCl; 50 mM Tris pH 7.0; 40 µM RNA, 40 µM FAD; ∆λmax 6
[9] = tested on: X2B2-C14U-U24A (RNA, aptamer) GGAUACACAAGAGUGAUUGAAACAAAGUCUGUGUAUCC; experiment: UV-Vis absorbance shift; details: 30 mM MgCl2, 140 mM KCl, 10 mM NaCl; 50 mM Tris pH 7.0; 40 µM RNA, 40 µM FAD; ∆λmax 1
[10] = tested on: X2B2-G11U (RNA, aptamer) GGAUACACAAUAGCGAUUGAAACUAAGUCUGUGUAUCC; experiment: UV-Vis absorbance shift; details: 30 mM MgCl2, 140 mM KCl, 10 mM NaCl; 50 mM Tris pH 7.0; 40 µM RNA, 40 µM FAD; ∆λmax 0
[11] = tested on: X2B2-D2 (RNA, aptamer) GGAUACACAAGAGCACUUGAAACUAAGUCUGUGUAUCC; experiment: UV-Vis absorbance shift; details: 30 mM MgCl2, 140 mM KCl, 10 mM NaCl; 50 mM Tris pH 7.0; 40 µM RNA, 40 µM FAD; ∆λmax 4
[12] = tested on: X2B2-A10U (RNA, aptamer) GGAUACACAUGAGCGAUUGAAACUAAGUCUGUGUAUCC; experiment: UV-Vis absorbance shift; details: 30 mM MgCl2, 140 mM KCl, 10 mM NaCl; 50 mM Tris pH 7.0; 40 µM RNA, 40 µM FAD; ∆λmax 5
[13] = tested on: Neg (RNA, other) GGAACUGCGAUCUAGUGAGACUGACUCGUGAUCGGA; experiment: UV-Vis absorbance shift; details: 30 mM MgCl2, 140 mM KCl, 10 mM NaCl; 50 mM Tris pH 7.0
[14] = tested on: X2B2-A20U (RNA, aptamer) GGAUACACAAGAGCGAUUGUAACUAAGUCUGUGUAUCC; experiment: UV-Vis absorbance shift; details: 30 mM MgCl2, 140 mM KCl, 10 mM NaCl; 50 mM Tris pH 7.0; 40 µM RNA, 40 µM FAD; ∆λmax 0
[15] = tested on: 12.8 (RNA, aptamer) GGGAAAAGCGAAUCAUACACAAGAGUGUGACGCACUUUAUGAUCGGAGGCCGUCAUUGUAUGGCGUGGGCAUAAGGUAUUUAAUUCCAUA; experiment: in-line probing; details: 30 mM MgCl2; 25 mM Tris pH 8.0, 37 °C, 18 h; 500 µM FAD
[16] = tested on: X2B2-C1 (RNA, aptamer) GGAUACACAAGAGCGAACGAAACUAGUUCUGUGUAUCC; experiment: UV-Vis absorbance shift; details: 30 mM MgCl2, 140 mM KCl, 10 mM NaCl; 50 mM Tris pH 7.0; 40 µM RNA, 40 µM FAD; ∆λmax 0
[17] = tested on: X2B2-A25U (RNA, aptamer) GGAUACACAAGAGCGAUUGAAACUUAGUCUGUGUAUCC; experiment: UV-Vis absorbance shift; details: 30 mM MgCl2, 140 mM KCl, 10 mM NaCl; 50 mM Tris pH 7.0; 40 µM RNA, 40 µM FAD; ∆λmax 2
[18] = tested on: X2B2-C14G (RNA, aptamer) GGAUACACAAGAGGGAUUGAAACUAAGUCUGUGUAUCC; experiment: UV-Vis absorbance shift; details: 30 mM MgCl2, 140 mM KCl, 10 mM NaCl; 50 mM Tris pH 7.0; 40 µM RNA, 40 µM FAD; ∆λmax 2
[19] = tested on: X2B2-C4 (RNA, aptamer) GGAUAGCCAAGAGCGAUUGAAACUAAGUCUGGCUAUCC; experiment: UV-Vis absorbance shift; details: 30 mM MgCl2, 140 mM KCl, 10 mM NaCl; 50 mM Tris pH 7.0; 40 µM RNA, 40 µM FAD; ∆λmax 7
[20] = tested on: 12.29 (RNA, aptamer) GGGAAAAGCGAAUCAUACACAAGAGCGAUUGAAACUAAGUCUGUGCUAUGUUCGUUAUCGCCGGUGGGGCAUAAGGUAUUUAAUUCCAUA; experiment: in-line probing; details: 30 mM MgCl2; 25 mM Tris pH 8.0, 37 °C, 18 h; 500 µM FAD
[21] = tested on: X2B2-BT1 (RNA, aptamer) GGAUACAAACGAGCGAUUGAAACUAAGUCGUUGUAUCC; experiment: UV-Vis absorbance shift; details: 30 mM MgCl2, 140 mM KCl, 10 mM NaCl; 50 mM Tris pH 7.0; 40 µM RNA, 40 µM FAD; ∆λmax 5
[22] = tested on: X2B2-D3 (RNA, aptamer) GGAUACAGUAGAGCGAUUGAAACUAAGUCUGUGUAUCC; experiment: UV-Vis absorbance shift; details: 30 mM MgCl2, 140 mM KCl, 10 mM NaCl; 50 mM Tris pH 7.0; 40 µM RNA, 40 µM FAD; ∆λmax 5
[23] = tested on: X2B2-C23U (RNA, aptamer) GGAUACACAAGAGCGAUUGAAAUUAAGUCUGUGUAUCC; experiment: UV-Vis absorbance shift; details: 30 mM MgCl2, 140 mM KCl, 10 mM NaCl; 50 mM Tris pH 7.0; 40 µM RNA, 40 µM FAD; ∆λmax 2
[24] = tested on: X2B2-C14U-ΔA9 (RNA, aptamer) GGAUACACAGAGUGAUUGAAACUAAGUCUGUGUAUCC; experiment: UV-Vis absorbance shift; details: 30 mM MgCl2, 140 mM KCl, 10 mM NaCl; 50 mM Tris pH 7.0; 40 µM RNA, 40 µM FAD; ∆λmax 8
[25] = tested on: X2B2-G19U (RNA, aptamer) GGAUACACAAGAGCGAUUUAAACUAAGUCUGUGUAUCC; experiment: UV-Vis absorbance shift; details: 30 mM MgCl2, 140 mM KCl, 10 mM NaCl; 50 mM Tris pH 7.0; 40 µM RNA, 40 µM FAD; ∆λmax 2
[26] = tested on: X2B2-C3 (RNA, aptamer) GGAUACAGUAGAGCGAUUGAAACUAAGUCACUGUAUCC; experiment: UV-Vis absorbance shift; details: 30 mM MgCl2, 140 mM KCl, 10 mM NaCl; 50 mM Tris pH 7.0; 40 µM RNA, 40 µM FAD; ∆λmax 5
[27] = tested on: X2B2-A22U (RNA, aptamer) GGAUACACAAGAGCGAUUGAAUCUAAGUCUGUGUAUCC; experiment: UV-Vis absorbance shift; details: 30 mM MgCl2, 140 mM KCl, 10 mM NaCl; 50 mM Tris pH 7.0; 40 µM RNA, 40 µM FAD; ∆λmax 2
[28] = tested on: X2B2-U24A (RNA, aptamer) GGAUACACAAGAGCGAUUGAAACAAAGUCUGUGUAUCC; experiment: UV-Vis absorbance shift; details: 30 mM MgCl2, 140 mM KCl, 10 mM NaCl; 50 mM Tris pH 7.0; 40 µM RNA, 40 µM FAD; ∆λmax 6
[29] = tested on: X2B2-D1 (RNA, aptamer) GGAUACACAAGAGCGAACGAAACUAAGUCUGUGUAUCC; experiment: UV-Vis absorbance shift; details: 30 mM MgCl2, 140 mM KCl, 10 mM NaCl; 50 mM Tris pH 7.0; 40 µM RNA, 40 µM FAD; ∆λmax 1
[30] = tested on: X2B2-A12U (RNA, aptamer) GGAUACACAAGUGCGAUUGAAACUAAGUCUGUGUAUCC; experiment: UV-Vis absorbance shift; details: 30 mM MgCl2, 140 mM KCl, 10 mM NaCl; 50 mM Tris pH 7.0; 40 µM RNA, 40 µM FAD; ∆λmax 0
[31] = tested on: X2B2-C14U-BT1 (RNA, aptamer) GGAUACAAACGAGUGAUUGAAACUAAGUCGUUGUAUCC; experiment: UV-Vis absorbance shift; details: 30 mM MgCl2, 140 mM KCl, 10 mM NaCl; 50 mM Tris pH 7.0; 40 µM RNA, 40 µM FAD; ∆λmax 9
[32] = tested on: X2B2-G13U (RNA, aptamer) GGAUACACAAGAUCGAUUGAAACUAAGUCUGUGUAUCC; experiment: UV-Vis absorbance shift; details: 30 mM MgCl2, 140 mM KCl, 10 mM NaCl; 50 mM Tris pH 7.0; 40 µM RNA, 40 µM FAD; ∆λmax 1
[33] = tested on: X2B2-ΔA9 (RNA, aptamer) GGAUACACAGAGCGAUUGAAACUAAGUCUGUGUAUCC; experiment: UV-Vis absorbance shift; details: 30 mM MgCl2, 140 mM KCl, 10 mM NaCl; 50 mM Tris pH 7.0; 40 µM RNA, 40 µM FAD; ∆λmax 2
[34] = tested on: X2B2-ΔC14 (RNA, aptamer) GGAUACACAAGAGGAUUGAAACUAAGUCUGUGUAUCC; experiment: UV-Vis absorbance shift; details: 30 mM MgCl2, 140 mM KCl, 10 mM NaCl; 50 mM Tris pH 7.0; 40 µM RNA, 40 µM FAD; ∆λmax 1

Cc1cc2nc3c(=O)[nH]c(=O)nc-3n(C[C@H](O)[C@H](O)[C@H](O)CO)c2cc1C
0.885 ± 0.085 µM: Kd [2]
5.333 ± 0.722 µM: Kd [1]

Cc1cc2nc3c(=O)[nH]c(=O)nc-3n(C[C@H](O)[C@H](O)[C@H](O)COP(=O)(O)O)c2cc1C
0.243 ± 0.028 µM: Kd [2]
yes: binding [3] | binding [4] | binding [5]
1.414 ± 0.097 µM: Kd [1]

Cc1cc2nc3c(=O)[nH]c(=O)nc-3n(C[C@H](O)[C@H](O)[C@H](O)COP(=O)(O)OP(=O)(O)OC[C@H]3O[C@@H](n4cnc5c(N)ncnc54)[C@H](O)[C@@H]3O)c2cc1C
0.818 ± 0.032 µM: Kd [2]
weak: binding [6] | binding [11] | binding [17] | binding [18] | binding [21] | binding [23] | binding [25] | binding [27] | binding [33]
7.244 ± 0.398 µM: Kd [1]
yes: binding [8] | binding [12] | binding [15] | binding [19] | binding [20] | binding [22] | binding [24] | binding [26] | binding [28] | binding [31]
no: binding [7] | binding [9] | binding [10] | binding [13] | binding [14] | binding [16] | binding [29] | binding [30] | binding [32] | binding [34]
